Laboratory results reported in PubChem BioAssay AID250 (DTP/NCI, 2004).
Where “and” joins values, the source holds several entries; their conditions need not be identical. Identical values can stand only once. Toxic doses and inconclusive results are not listed.

Tested on: BDF1 mice, L1210 leukemia sc, survival T/C
Test: NCI In Vivo Anticancer Drug Screen. Data for tumor model L1210 Leukemia (subcutaneous) in B6D2F1 (BDF1) mice
Conditions: endpoint: median survival time, higher = longer survival
How it was run: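 Mice carrying transplanted tumors received test compounds, and survival or tumor size was measured. Values are the treated-group measurement (T) divided by that of the vehicle-treated control group (C).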

[1] = dose: 14.0 mg/kg/injection, schedule: Q01DX Z (sc), vehicle: saline
[2] = dose: 23.0 mg/kg/injection, schedule: Q01DX Z (sc), vehicle: saline
[3] = dose: 39.0 mg/kg/injection, schedule: Q01DX Z (sc), vehicle: saline
[4] = dose: 65.0 mg/kg/injection, schedule: Q01DX Z (sc), vehicle: saline
[5] = dose: 108.0 mg/kg/injection, schedule: Q01DX Z (sc), vehicle: saline
[6] = dose: 180.0 mg/kg/injection, schedule: Q01DX Z (sc), vehicle: saline
[7] = dose: 5.0 mg/kg/injection, schedule: Q01DX Z (sc), vehicle: methylcellulose (MC)
[8] = dose: 8.4 mg/kg/injection, schedule: Q01DX Z (sc), vehicle: methylcellulose (MC)
[9] = dose: 14.0 mg/kg/injection, schedule: Q01DX Z (sc), vehicle: methylcellulose (MC)
[10] = dose: 39.0 mg/kg/injection, schedule: Q01DX Z (sc), vehicle: methylcellulose (MC)
[11] = dose: 78.0 mg/kg/injection, schedule: Q01DX Z (sc), vehicle: methylcellulose (MC)
[12] = dose: 500.0 mg/kg/injection, schedule: Q01DX Z (sc), vehicle: methylcellulose (MC)
[13] = dose: 108.0 mg/kg/injection, schedule: Q01DX Z (sc), vehicle: methylcellulose (MC)
[14] = dose: 180.0 mg/kg/injection, schedule: Q01DX Z (sc), vehicle: methylcellulose (MC)
[15] = dose: 300.0 mg/kg/injection, schedule: Q01DX Z (sc), vehicle: methylcellulose (MC)
[16] = dose: 65.0 mg/kg/injection, schedule: Q01DX Z (sc), vehicle: methylcellulose (MC)

C[n+]1cccc2cc(NC(=O)c3ccc(C(=O)Nc4ccc5c(ccc[n+]5C)c4)cc3)ccc21
T/C (dose: 3.0 mg/kg/injection, schedule: Q01DX Z (sc), vehicle: saline): 100 % of control
T/C (dose: 5.0 mg/kg/injection, schedule: Q01DX Z (sc), vehicle: saline): 100 % of control
T/C (dose: 8.4 mg/kg/injection, schedule: Q01DX Z (sc), vehicle: saline): 100 % of control
T/C [1]: 105 % of control
T/C [2]: 100 % of control
T/C [3]: 233 % of control
T/C [4]: 172 % of control
T/C [5]: 205 % of control
T/C [6]: 194 % of control

O=C(CCN1CC1)OCCOC(=O)CCN1CC1
T/C (dose: 4.7 mg/kg/injection, schedule: Q01DX Z (sc), vehicle: saline): 100 % of control
T/C (dose: 7.8 mg/kg/injection, schedule: Q01DX Z (sc), vehicle: saline): 100 % of control
T/C (dose: 13.0 mg/kg/injection, schedule: Q01DX Z (sc), vehicle: saline): 100 % of control
T/C (dose: 21.0 mg/kg/injection, schedule: Q01DX Z (sc), vehicle: saline): 111 % of control

CCOS(C)(=O)=O
T/C [1]: 100 % of control
T/C [2]: 95 % of control
T/C [3]: 100 % of control
T/C [4]: 90 % of control
T/C [5]: 95 % of control
T/C [6]: 90 % of control

Cn1cnc([N+](=O)[O-])c1Sc1ncnc2nc[nH]c12
T/C (dose: 3.0 mg/kg/injection, schedule: Q01DX Z (oral), vehicle: methylcellulose (MC)): 100 % of control
T/C [7]: 100 % of control
T/C [8]: 100 % of control
T/C [9]: 100 % of control
T/C (dose: 23.0 mg/kg/injection, schedule: Q01DX Z (oral), vehicle: methylcellulose (MC)): 100 % of control
T/C (dose: 28.0 mg/kg/injection, schedule: Q01DX Z (sc), vehicle: methylcellulose (MC)): 110 % of control
T/C (dose: 39.0 mg/kg/injection, schedule: Q01DX Z (oral), vehicle: methylcellulose (MC)): 100 % of control
T/C [10]: 100 % of control
T/C (dose: 47.0 mg/kg/injection, schedule: Q01DX Z (sc), vehicle: methylcellulose (MC)): 115 % of control
T/C (dose: 65.0 mg/kg/injection, schedule: Q01DX Z (oral), vehicle: methylcellulose (MC)): 100 % of control
T/C [11]: 120 % of control
T/C (dose: 360.0 mg/kg/injection, schedule: Q01DX Z (sc), vehicle: methylcellulose (MC)): 110 % of control
T/C (dose: 500.0 mg/kg/injection, schedule: Q01DX Z (oral), vehicle: methylcellulose (MC)): 155 % of control
T/C [12]: 122 % of control
T/C (dose: 600.0 mg/kg/injection, schedule: Q01DX Z (sc), vehicle: methylcellulose (MC)): 105 % of control

CN(C)c1ccc(/C=C/c2ccnc3ccccc23)cc1
T/C (dose: 0.65 mg/kg/injection, schedule: Q01DX Z (sc), vehicle: water): 100 % of control
T/C (dose: 1.08 mg/kg/injection, schedule: Q01DX Z (sc), vehicle: water): 100 % of control
T/C (dose: 1.8 mg/kg/injection, schedule: Q01DX Z (sc), vehicle: water): 104 % of control
T/C (dose: 3.0 mg/kg/injection, schedule: Q01DX Z (sc), vehicle: water): 100 % of control
T/C (dose: 5.0 mg/kg/injection, schedule: Q01DX Z (sc), vehicle: water): 100 % of control
T/C (dose: 6.0 mg/kg/injection, schedule: Q01DX Z (sc), vehicle: water): 100 % of control
T/C (dose: 8.4 mg/kg/injection, schedule: Q01DX Z (sc), vehicle: water): 100 % of control
T/C (dose: 10.0 mg/kg/injection, schedule: Q01DX Z (sc), vehicle: water): 100 % of control
T/C (dose: 14.0 mg/kg/injection, schedule: Q01DX Z (sc), vehicle: water): 100 % of control
T/C (dose: 17.0 mg/kg/injection, schedule: Q01DX Z (sc), vehicle: water): 100 % of control
T/C (dose: 28.0 mg/kg/injection, schedule: Q01DX Z (sc), vehicle: water): 100 % of control
T/C (dose: 47.0 mg/kg/injection, schedule: Q01DX Z (sc), vehicle: water): 100 % of control
T/C (dose: 78.0 mg/kg/injection, schedule: Q01DX Z (sc), vehicle: water): 110 % of control
T/C (dose: 130.0 mg/kg/injection, schedule: Q01DX Z (sc), vehicle: water): 100 % of control

Nc1ncnc2[nH]ncc12
T/C (dose: 3.0 mg/kg/injection, schedule: Q01DX Z (sc), vehicle: methylcellulose (MC)): 100 % of control
T/C [7]: 112 % of control
T/C [8]: 112 % of control and 115 % of control
T/C [9]: 108 % of control
T/C (dose: 23.3 mg/kg/injection, schedule: Q01DX Z (sc), vehicle: methylcellulose (MC)): 91 % of control
T/C (dose: 38.9 mg/kg/injection, schedule: Q01DX Z (sc), vehicle: methylcellulose (MC)): 120 % of control
T/C (dose: 46.8 mg/kg/injection, schedule: Q01DX Z (sc), vehicle: methylcellulose (MC)): 116 % of control
T/C (dose: 64.8 mg/kg/injection, schedule: Q01DX Z (sc), vehicle: methylcellulose (MC)): 100 % of control
T/C [11]: 100 % of control
T/C [13]: 100 % of control
T/C (dose: 130.0 mg/kg/injection, schedule: Q01DX Z (sc), vehicle: methylcellulose (MC)): 91 % of control
T/C [14]: 100 % of control
T/C [15]: 100 % of control

OC(C1CO1)C(O)C1CO1 (configuration not stated)
T/C (dose: 0.12 mg/kg/injection, schedule: Q01DX009 (ip), vehicle: saline): 98 % of control
T/C (dose: 0.25 mg/kg/injection, schedule: Q01DX009 (ip), vehicle: saline): 107 % of control
T/C (dose: 0.5 mg/kg/injection, schedule: Q01DX009 (ip), vehicle: saline): 107 % of control
T/C (dose: 1.0 mg/kg/injection, schedule: Q01DX009 (ip), vehicle: saline): 122 % of control
T/C (dose: 1.0 mg/kg/injection, schedule: Q01DX009 (ip), vehicle: water): 116 % of control
T/C (dose: 1.0 mg/kg/injection, schedule: Q01DX009 (sc), vehicle: water): 122 % of control
T/C (dose: 2.0 mg/kg/injection, schedule: Q01DX009 (ip), vehicle: saline): 150 % of control
T/C (dose: 2.0 mg/kg/injection, schedule: Q01DX009 (sc), vehicle: water): 150 % of control
T/C (dose: 2.0 mg/kg/injection, schedule: Q04DX003 (ip), vehicle: water): 111 % of control
T/C (dose: 4.0 mg/kg/injection, schedule: Q01DX009 (ip), vehicle: saline): 118 % of control
T/C (dose: 4.0 mg/kg/injection, schedule: Q04DX003 (ip), vehicle: water): 155 % of control
T/C (dose: 4.0 mg/kg/injection, schedule: Q04DX003 (sc), vehicle: water): 161 % of control
T/C (dose: 8.0 mg/kg/injection, schedule: Q04DX003 (ip), vehicle: water): 88 % of control
T/C (dose: 8.0 mg/kg/injection, schedule: Q04DX003 (sc), vehicle: water): 116 % of control

O=c1[nH]cc(N(CCCl)CCCl)c(=O)[nH]1
T/C (dose: 0.23 mg/kg/injection, schedule: Q01DX Z (sc), vehicle: other): 100 % of control
T/C (dose: 0.39 mg/kg/injection, schedule: Q01DX Z (sc), vehicle: other): 100 % of control
T/C (dose: 0.65 mg/kg/injection, schedule: Q01DX Z (sc), vehicle: other): 100 % of control
T/C (dose: 1.08 mg/kg/injection, schedule: Q01DX Z (sc), vehicle: other): 100 % of control
T/C (dose: 1.8 mg/kg/injection, schedule: Q01DX Z (sc), vehicle: other): 105 % of control and 110 % of control
T/C (dose: 3.0 mg/kg/injection, schedule: Q01DX Z (sc), vehicle: other): 110 % of control and 115 % of control
T/C (dose: 5.0 mg/kg/injection, schedule: Q01DX Z (sc), vehicle: other): 150 % of control and 160 % of control
T/C (dose: 8.4 mg/kg/injection, schedule: Q01DX Z (sc), vehicle: other): 100 % of control and 120 % of control
T/C (dose: 14.0 mg/kg/injection, schedule: Q01DX Z (sc), vehicle: other): 120 % of control

CC(C)Sc1nc(N)nc2nc[nH]c12
T/C (dose: 23.0 mg/kg/injection, schedule: Q01DX Z (sc), vehicle: methylcellulose (MC)): 100 % of control
T/C [10]: 100 % of control
T/C [16]: 111 % of control
T/C [13]: 111 % of control
T/C [14]: 111 % of control
T/C [15]: 105 % of control
T/C [12]: 111 % of control

C[C@]12CCC(=O)C=C1CC[C@H]1[C@@H]3CC[C@](O)(C(=O)CO)[C@@]3(C)C[C@H](O)[C@@]12F
T/C [10]: 100 % of control
T/C [16]: 100 % of control
T/C [13]: 100 % of control
T/C [14]: 100 % of control
T/C [15]: 100 % of control and 118 % of control
T/C (dose: 833.0 mg/kg/injection, schedule: Q01DX Z (sc), vehicle: methylcellulose (MC)): 112 % of control
